Test results taken from patent publication US20250333437A1, “USE OF NON-INFORMAT[…] CHAINS TO MODIFY THE […] PEPTIDES” (priority 2022, published 2025).

Assay: Solubility of the poison ivy antigen in water and ethanol
Assay type: physicochemical
Source text: The present inventors discovered the phenomenon of tissue deposition by precipitation (TDBP) with an allergy vaccine that was a catechol and naturally had the requisite solubility properties to achieve TDBP. In particular, the poison ivy antigen that induced tolerance when precipitated in muscle by precipitation is a catechol which is naturally insoluble in water and for which effective doses are soluble in small volumes of the pharmaceutically acceptable water-miscible solvent ethanol. The inventors termed the phenomenon vaccine delivery by precipitation (VDBP) which is a preferred embodiment of TDBP and they interpreted its probable mechanism of action.
FIG. 1 is a graphic representation of the function of the adaptive immune system in the skin, reproduced from Teunissen on intradermal immunization. It is a cartoon of how immunomodulation takes place. […] These recognize and take up molecules or particles of an antigen which they then present to naive T lymphocytes which then mature along one of what are shown here as seven different pathways. The location is the cortex of a lymph node. Dendritic cells (DC's) from either homeostatic or inflamed tissue present antigenic epitopes in their MHC Class Il molecular grooves, to naive T lymphocytes (Tn). […]

Which solubility in ethanol (effective doses in small volumes of ethanol) does the source give for urushiol [poison ivy antigen] here?
The solubility in ethanol was “soluble”.

And the solubility in water (water)?
The solubility in water was “insoluble”.
